# Measurements published in PubChem BioAssay (NCI).
# Values joined by “and” are separate entries in the source; they are usually repeats but may differ in a detail not shown here. Equal entries are not always repeated.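 48-hour exposure; five concentrations; linearly interpolated endpoints. GI50 marks 50% less growth. The concentration for full growth arrest is given as TGI.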
# Tests used:
# Assay in all cases: DTP human tumour cell line panel, 48 h
# COLO 205 colon = tested on: COLO 205 colon
# DU-145 prostate = tested on: DU-145 prostate
# HCT-15 colon = tested on: HCT-15 colon
# IGROV1 ovarian = tested on: IGROV1 ovarian
# NCI-H226 lung = tested on: NCI-H226 lung
# SF-295 CNS = tested on: SF-295 CNS
# SF-539 CNS = tested on: SF-539 CNS
# T-47D breast = tested on: T-47D breast
# TK-10 renal = tested on: TK-10 renal
# UACC-62 melanoma = tested on: UACC-62 melanoma
Compound,GI50 (COLO 205 colon) [µM],TGI (COLO 205 colon) [µM],GI50 (DU-145 prostate),TGI (DU-145 prostate),GI50 (HCT-15 colon),TGI (HCT-15 colon),GI50 (IGROV1 ovarian),TGI (IGROV1 ovarian),GI50 (NCI-H226 lung) [µM],TGI (NCI-H226 lung) [µM],GI50 (SF-295 CNS),TGI (SF-295 CNS),GI50 (SF-539 CNS),TGI (SF-539 CNS),GI50 (T-47D breast) [µM],TGI (T-47D breast) [µM],GI50 (TK-10 renal),TGI (TK-10 renal) [µM],GI50 (UACC-62 melanoma),TGI (UACC-62 melanoma) [µM]
CCN1CCN(Cc2ccc(Nc3ncc(F)c(-c4cc(F)c5nc(C)n(C(C)C)c5c4)n3)nc2)CC1,0.218,6.26,5.75 µM,12.2 µM,0.47 µM,11.7 µM,2.03 µM,13.1 µM,0.109,25.2,0.0882 µM,9.08 µM,7.39 µM,15.7 µM,19.3,29,0.029 µM,8.63,6.39 µM,14.2
Cc1cc(S(=O)(=O)Nc2nc3ccccc3c(=O)n2Cc2ccco2)c(S)cc1Cl,> 100,> 100,30.7 µM,> 100 µM,55 µM,> 100 µM,36.9 µM,> 100 µM,83.6,> 100,31.8 µM,> 100 µM,31.5 µM,84.5 µM,15,81.4,35 µM,> 100,36.4 µM,> 100
c1cc[n+](Cc2c3ccccc3cc3c2ccc2ccccc23)cc1,1.88,5.24,6.45 µM,20.4 µM,> 100 µM,> 100 µM,1.67 µM,5.93 µM,2.92,24.8,3.42 µM,23.2 µM,2.55 µM,10.5 µM,2.34,7.92,8.2 µM,28.2,1.92 µM,3.93
CSC1=CC(=O)c2ccccc2C1=O,1.99,3.65,10.8 µM,23.6 µM,11.6 µM,26.1 µM,3.7 µM,13.2 µM,1.68,3.82,15.4 µM,31.5 µM,11.4 µM,24.3 µM,0.41,2.1,2.66 µM,5.5,4.06 µM,17.1
CS(=O)(=O)Nc1cc(-c2ccc3ncc(C#N)c(Nc4ccc(F)c(Cl)c4)c3c2)cnc1Cl,0.232,0.943,0.242 µM,> 22.1 µM,0.167 µM,4.91 µM,0.0609 µM,0.372 µM,0.258,2.16,0.181 µM,0.82 µM,0.109 µM,0.79 µM,0.0351,0.403,0.166 µM,0.793,0.073 µM,0.596
C[n+]1cccc(NC(=O)c2ccc3ccc4ccc(C(=O)Nc5ccc[n+](C)c5)nc4c3n2)c1,4.35,> 100,0.376 µM,15.6 µM,3.37 µM,> 100 µM,1.51 µM,> 100 µM,0.121,0.693,2.59 µM,25.3 µM,3.33 µM,15.6 µM,0.52,> 100,53.7 µM,> 100,0.357 µM,2.05
CC(C)c1cnc(-c2cc(Cl)ccc2F)cc1Nc1ccncc1C(=O)NC(CO)CO,14.9,33.9,13.4 µM,42 µM,12.9 µM,26.9 µM,10.3 µM,35.4 µM,13.6,34.8,13.1 µM,26.6 µM,15 µM,29.9 µM,4.5,34.8,10.8 µM,56,15.1 µM,29
CCCCCc1cc(/C=C2/N=C(c3ccc[nH]3)C=C2OC)[nH]c1C,–,0.0483,–,1.48 µM,–,1.05 µM,–,0.195 µM,–,1.79,–,< 0.0282 µM,–,0.177 µM,–,0.421,–,1.29,–,0.03
COc1cc(/C=C2\CC3C4CCC5=CC(=O)CC[C@]5(C)C4CC[C@]3(C)C2=O)ccc1OCCN1CCCC1 (some centres not stated),2.04,4.91,3.76 µM,16.8 µM,2.76 µM,10.7 µM,2.33 µM,5.73 µM,1.81,7.08,2.62 µM,7.58 µM,1.78 µM,3.67 µM,3.29,9.21,1.51 µM,3.92,2.06 µM,5.02
COc1ccc(N=Nc2ccc(O)c(=O)cc2)cc1,7.07,> 100,4.07 µM,> 100 µM,2.55 µM,> 100 µM,3.86 µM,> 100 µM,3.73,> 100,3.79 µM,> 100 µM,3.16 µM,11.5 µM,2.64,> 100,5.8 µM,> 100,2.11 µM,5.12
Cc1[nH]c(C(=O)Nc2cccc(OC3CCNCC3)c2)c(Cl)c1Cl,1.93,4.02,1.89 µM,3.52 µM,1.73 µM,3.36 µM,1.76 µM,3.37 µM,2.43,6.78,1.97 µM,3.96 µM,1.64 µM,3.06 µM,1.96,4.52,1.94 µM,3.7,1.81 µM,3.45
COc1ccc2[nH]c(C(=O)OCc3ccc4c(Br)cc(Br)c(O)c4n3)cc2c1,0.442,1.92,1.12 µM,2.33 µM,0.355 µM,1.23 µM,0.418 µM,1.67 µM,1.3,2.81,2.02 µM,5.33 µM,0.768 µM,2.05 µM,1.15,3.57,1.39 µM,2.71,1.06 µM,2.29
Nc1c(C(=O)Nc2cccc(Cl)c2)sc2nc3c(cc12)C(O)CCC3 (configuration not stated),0.348,3.53,0.388 µM,16.3 µM,0.37 µM,> 100 µM,0.992 µM,40.7 µM,2.68,38.1,0.314 µM,16.3 µM,0.275 µM,0.965 µM,0.463,53.2,10.8 µM,36.8,0.463 µM,58.8
Nc1nc2ccc(CNc3ccc(C(=O)NC(CC(=O)O)C(=O)O)cc3)cc2c(=O)[nH]1 (configuration not stated),10.7,> 100,1.58 µM,> 100 µM,0.757 µM,> 100 µM,3.32 µM,> 100 µM,> 65.3,> 100,1 µM,> 28.7 µM,3.3 µM,> 100 µM,> 100,> 100,> 100 µM,> 100,5.89 µM,> 100
O=C(O)CN1C(=O)OC(c2ccccc2)C1=O (configuration not stated),–,> 100,–,> 100 µM,–,> 100 µM,–,> 100 µM,–,> 100,–,> 100 µM,–,> 100 µM,–,> 100,–,> 100,–,> 100
O=S(=O)(NCCNc1nccc(-c2c(-c3ccc(F)cc3)nc3sccn23)n1)c1ccc(O)cc1,2,14.8,3.17 µM,28.8 µM,5 µM,> 100 µM,1.7 µM,13.7 µM,6.91,21.9,10.4 µM,34.6 µM,11.3 µM,30.7 µM,2.36,19.2,4.81 µM,26.3,2.35 µM,18.8
CC(=O)Oc1ccc(C2OC(c3ccc4ccccc4c3OC(C)=O)=NN2C(C)=O)c(OC(C)=O)c1 (configuration not stated),0.377,> 32.3,0.476 µM,> 100 µM,0.294 µM,> 68 µM,0.348 µM,15.1 µM,0.515,> 38.9,0.295 µM,14.8 µM,0.342 µM,12.3 µM,0.664,> 52.6,0.774 µM,> 53.8,0.331 µM,9.04
CCOC(=O)c1c(C)n([O-])c2cc(F)c(F)cc2[n+]1=O,1.94,4.54,3.27 µM,9.01 µM,0.455 µM,2.04 µM,0.491 µM,–,1.94,3.94,1.74 µM,3.41 µM,3.91 µM,8.84 µM,1.87,3.69,17.4 µM,32.5,1.47 µM,2.91
CCOC(=O)C1=C(C)NC2SC(=O)/C(=C\c3cccc(Cl)c3)N2C1c1ccccc1 (configuration not stated),> 100,> 100,> 100 µM,> 100 µM,> 100 µM,> 100 µM,> 100 µM,> 100 µM,> 100,> 100,> 100 µM,> 100 µM,> 100 µM,> 100 µM,> 100,> 100,> 100 µM,> 100,> 100 µM,> 100
COc1ccccc1/C=C1\CCC(Cc2ccccc2)(CN(C)C)C1=O (configuration not stated),–,7.82,–,> 100 µM,–,14.4 µM,–,> 41.2 µM,–,80.4,–,> 63.1 µM,–,5.89 µM,–,> 100,–,> 77.7,–,> 26.1
CC[C@]12C=CCN3CC[C@]4(C(=C(C(=O)OC)C1)Nc1cc5c(cc14)[C@@H]1[C@H](O5)[C@@H](O)[C@@]4(CC)CC(C(=O)OC)=C5Nc6ccccc6[C@@]56CCN1[C@@H]46)[C@@H]32,0.0695,2.78,1.59 µM and 1.77 µM,25 µM and 10.7 µM,0.0964 µM and 0.26 µM,3.37 µM and 1.42 µM,0.156 µM and 0.253 µM,3.99 µM and 14 µM,0.688,25,1.17 µM and 0.535 µM,25 µM and 12.8 µM,0.15 µM and 0.339 µM,3.74 µM and 7.05 µM,0.335,> 100,0.185 µM and 0.402 µM,–,0.137 µM and 0.158 µM,–
N#CC1=C(N)N=C(N2CCOCC2)C(C#N)C12Nc1ccccc1S2 (configuration not stated),12.7,52.4,19.2 µM,56.5 µM,29.1 µM,> 100 µM,67.3 µM,> 100 µM,27.8,> 100,26.3 µM,79.1 µM,18.9 µM,35.5 µM,27.3,88.2,14 µM,49.2,18.8 µM,40.9
COc1cc2c(Nc3ccc(-c4ccc(N)cc4)cc3)ncnc2c(OC)c1OC,2.6,7.94,18.4 µM,> 100 µM,0.607 µM,> 85.7 µM,12.6 µM,> 100 µM,21,> 100,1.5 µM,7.52 µM,2.42 µM,> 28.7 µM,5.13,86.7,21 µM,> 100,0.522 µM,> 35.1
COc1ccccc1CNCCCN1C(=O)c2ccc3c4c(ccc(c24)C1=O)C(=O)N(CCCNCCCCNCCCN)C3=O,0.168,0.317,0.682 µM,2.03 µM,1.75 µM,5.73 µM,0.359 µM,11.1 µM,0.911,2.71,1.06 µM,6.79 µM,0.426 µM,1.67 µM,0.214,0.49,0.959 µM,6.28,0.362 µM,1.69
CCOc1cc(Cl)c(C(C)NC(=O)c2cccc(OC)c2)cc1OCC (configuration not stated),7.17,47.3,24.8 µM,> 100 µM,4.06 µM,> 100 µM,17.5 µM,> 100 µM,37.4,> 100,5.99 µM,> 84.5 µM,5.01 µM,34.3 µM,7.06,> 100,28.6 µM,> 100,8.81 µM,> 100
O=C(CCN1CCCCC1)c1csc2ccccc12,–,> 100,–,> 100 µM,–,> 100 µM,–,> 100 µM,–,> 100,–,> 100 µM,–,> 100 µM,–,> 100,–,> 100,–,> 100
